Several values for one entry are separate records, joined by “and”; a condition that tells them apart may be missing. Identical values can stand only once. Like-named read-outs stand apart in the source and are kept apart here.
How the values were obtained:
[1] = tested on: all 7 bio-indicator strains; assay: Inoculated 2% juice beverage pH 3.4, sequestrant and weak acid combinations (Examples 27-29); type: cell-based; settings: for SHMP concentration that prohibits outgrowth of all 7 bio-indicator strains: potassium sorbate 0.015%
Description: (§1) Copper, less than 1 microgram per liter Zinc less than 1 microgram per liter, Nickel, less than 1 microgram per liter and Iron less than 0.1 microgram per liter. The water hardness was/is adjusted to 50 ppm through addition of mixture of CaCl2 and MgCl2.
(§2) The spoilage organisms for the following examples are identified as follows: Y3, Zygosaccharomyces bailii isolate of Pepsi (Strain 906); C-7UP, Brettanomyces isolate of Pepsi, (Cherry 7-UP); Spore, ascospore preparation of Saccharomyces cerevisiae isolate of Pepsi (strain “spore”). Y22, ATCC 60484 Zygosacharomyces bailii; M1, Paecilomyces isolate of Pepsi; Y107 ATCC 52407; M2 ATCC 36614 Byssochlamys nieva. An inoculum of approximately 40 per milliliter was/is employed for each organism. All test samples were/are incubated 16 weeks at 25 C.
(§3) A preparation of beverage was divided into three aliquots; one was supplemented with EDTA (30 ppm) and the remaining two aliquots were supplemented with either 15 or 30 ppm EDDS.
(§4) The beverage aliquots were identical with the exception of the presence or concentration of either EDTA or EDDS. Each aliquot was divided further into smaller volume test samples wherein the concentration of potassium sorbate varies from 0-1500 ppm (0-0.15%). The concentration of EDTA or EDDS is held constant. Under these circumstances, it is possible to establish whether either EDTA or EDDS permitted the use of lowered concentrations of potassium sorbate to preserve a product of pH 3.4. […] The beverage is formulated to contain 50 ppm hardness.
The biodegradable sequestrant ethylene diamine disuccinic acid was admixed with a sodium hexametaphosphate and cinnamic acid in the beverage as shown in the formula for the beverage.
A 2% fruit juice based non-carbonated beverage of pH 3.4 and about 12 Brix was formed by combining the following ingredients.
The biodegradable sequestrant ethylene diamine disuccinic acid was admixed with a bis-phosphonate (Etidronate) wherein the two sequestrants combined to limit the availability of divalent cations to spoilage microorganisms. The beverage was also supplemented with potassium sorbate.
(§5) A 2% fruit juice based non-carbonated beverage of pH 3.4 and about 12Brix was formed by combining the following ingredients.

[2] = Stability against heat or acid induced hydrolysis in beverage; type: physicochemical; settings: thermal processing or ambient aqueous solution
Procedure: The maximum temperature of product in container of 71.3° C. permits the use of standard PET containers as opposed to the environmentally less-sound heat-set PET containers typically employed in hot fill operations. […] A formulation containing SHMP in place of bis-phosphonate will fail because of the degradation of SHMP that occurs during thermal processing.
Furthermore, the problem of pH drift that accompanies the use of SHMP is avoided. Substituting EDDS for EDTA avoids the concerns associated with employing a substance that is not environmentally sound.
Bis-phosphonates, as a substitute for SHMP, allows for the use of thermal processing of beverage in that all bis-phosphonates are stable against heat or acid induced hydrolysis. Such is not the case for polyphosphates such as SHMP. Furthermore, the problem of pH drift that accompanies the use of SHMP at ambient temperatures is avoided. Substituting EDDS for EDTA avoids the concerns associated with employing a substance that is not environmentally sound.

[3] = tested on: Strain Y3; assay: Yeast strains spotted on agar-solidified beverage plates containing a weak organic acid (Example 25); type: cell-based, Zygossacharomyces bailii; settings: sodium benzoate 700 or 1000 ppm, potassium sorbate 500 or 800 ppm, cinnamic acid 25-200 ppm
Procedure: A 2 fold concentrate of beverage was prepared and was then mixed with an equal volume of 15% molten agar. Before solidification of the agar, the single strength beverage formulation containing 7.5% molten agar, was then divided into aliquots and to each separate aliquot was added, with the exception of one, sodium benzoate, potassium sorbate or cinnamic acid. The aliquot not receiving either potassium sorbate or cinnamic acid served as a positive control. While the agar was still molten, the agar-beverage aliquots (containing a single weak acid at a specified concentration) were poured into separate Petri plates. In Two agar plates. sodium benzoate was present at either 700 ppm or 1000 ppm) Two agar plates contained potassium sorbate (500 or 800 ppm). Six agar plates contained cinnamic acid ranging in concentrations of 25-200 ppm. Agar solidification essentially provides single strength beverage formulation in a semi-solid state.
The 2 fold concentrate of single strength beverage and the agar supplemented single strength beverage is prepared as follows:
After solidification of juice-agar mixture, various yeast strains (FIG. 2A) were spotted to the gel-surface of each type of mixture employing an identical pattern in each test (FIG. 2B) such that it was possible to identify the outgrowth of specific individual strains. […]

[4] = tested on: Saccharomyces cerevisae; assay: Growth in beverage acidified to pH 3.6 with malic acid (Example 33); type: cell-based
[5] = tested on: bio-indicators in the absence of Y3; settings: potassium sorbate alone, pH 3.4, 16 weeks at 25 C, FIG. 3A
Description: as §1, §2
(§6) A preparation of beverage was divided into multiple small volume aliquots, each aliquot containing a different concentration of potassium sorbate. The range of concentration of potassium sorbate is 0-0.094% (0-940 ppm). Preparations (aliquots) of beverage containing potassium sorbate at each test concentration (48 different values) are inoculated separately with one of 7 different spoilage organisms (bio-indicator) for a total of 336 test samples.
(§7) The 2% fruit juice based non-carbonated beverage of pH 3.4 and about 12 Brix was generated by combining the following ingredients.

[6] = tested on: strain Y3; settings: potassium sorbate alone
Description: as §1, §2, §6, §7

[7] = tested on: Mold (M1 & M6); settings: pH 3.4
Description: as §1, §2, §6, §3, §5, §4

[8] = acid pH
Description: Further, at least one regulatory agency in Asia has established an upper limit for the use of potassium sorbate at 50 ppm. If other regulatory agencies follow suite, it will be necessary to broadly apply a complement to potassium sorbate. […] Beverages are generally produced from concentrates and a […] beverage concentrate should contain 1200-1500 ppm potassium sorbate to yield a finished beverage concentration of 240-300 ppm. This often proves problematic during the batching of beverage and it is clear that a final beverage formulation containing 50-150 ppm potassium sorbate would be favored.

[9] = 25 C; cited from earlier work

For `O=C([O-])C=Cc1ccccc1.[K+]` [K+cinnamate, Potassium Cinnamate], the “K+cinnamate concentration that prohibits outgrowth of all 7 bio-indicator strains” value ([1]; with 30 ppm EDDS and 750 ppm SHMP, pH 3.4, FIG. 5B) was “no more than 50 ppm” and the “K+cinnamate concentration that prohibits outgrowth of all 7 bio-indicator strains” value ([1]; with 30 ppm EDTA and 750 ppm SHMP, pH 3.4, FIG. 5A) was 75 ppm.
For `O=P1([O-])OP(=O)([O-])OP(=O)([O-])OP(=O)([O-])OP(=O)([O-])OP(=O)([O-])O1.[Na+].[Na+].[Na+].[Na+].[Na+].[Na+]` [SHMP, sodium hexametaphosphate], the “SHMP concentration that prohibits outgrowth of all 7 bio-indicator strains” value ([1]; with 30 ppm EDDS, pH 3.4, FIG. 6A) was 280 ppm, the “SHMP concentration that prohibits outgrowth of all 7 bio-indicator strains” value ([1]; with 30 ppm EDTA, pH 3.4, FIG. 6B) was 250 ppm and the “stability against heat or acid induced hydrolysis” value [2] was “degradation”.
With `O=C(O)C=Cc1ccccc1` [Cinnamic acid, cinnamic acid] the “tolerance of strain Y3 to organic acid preservative (outgrowth on plate)” value [3] was “among the most tolerant strains”.
In the case of `NCCCC(O)(P(=O)(O)O)P(=O)(O)O` [Alendronate, alendronate], the “effect on growth rate of Saccharomyces cerevisae” value ([4]; 0.3% concentration, same beverage formulation pH 3.6) is reported as “retards the growth rate”.
For `CC(O)(P(=O)(O)O)P(=O)(O)O` [Etridonate, (1-hydroxyethylidene)bis-phosphonate], the “Etridonate concentration that prevents outgrowth of all seven spoilage organisms” value ([1]; with 30 ppm EDDS (so in the source) and 150 ppm potassium sorbate, pH 3.4, FIG. 6D) was 250 ppm and the “Etridonate concentration that prohibits outgrowth of all seven bio-indicator strains” value ([1]; with 30 ppm EDDS and 150 ppm potassium sorbate, pH 3.4, FIG. 6C) was < 425 ppm and < 450 ppm.
With `C/C=C/C=C/C(=O)[O-].[K+]` [potassium sorbate] the “amount of potassium sorbate required to preserve product in the absence of Y3” value [5] was 220-250 ppm, the “concentration of potassium sorbate required to inhibit Y3 or similar strains” value ([6]; pH 3.4, 16 weeks at 25 C, FIG. 3A) was 550-600 ppm and the “range of potassium sorbate concentrations with both growth and growth-free samples of Y3” value ([6]; pH 3.4, FIG. 3A) was 460-660 ppm. For the same compound, the “concentration of potassium sorbate required to inhibit mold” value (shortened to “concentration … to inhibit mold”) ([7]; combined with EDDS (30 ppm)) was 140-160 ppm, the “concentration … to inhibit mold” value ([7]; combined with EDTA (30 ppm)) was 140-160 ppm and the “concentration … to inhibit mold” value ([7]; potassium sorbate employed alone) was 180-200 ppm. For the same compound, the rate of dissolution [8] was “measurably low” and the solubility [8] was “not particularly soluble”.
With `O=C(O)CC(NCCNC(CC(=O)O)C(=O)O)C(=O)O` (centres unmarked) [EDDS, ethylenediamine-N,N′-disuccinic acid] the “preservative performance compared with EDTA when combined with a single weak acid preservative” value ([1]; 15 or 30 ppm EDDS vs 30 ppm EDTA, potassium sorbate varied, FIGS. 4A-4C) was “equivalent to EDTA”.
In the case of `CCCCCN(C)CCC(O)(P(=O)(O)O)P(=O)(O)O` [Ibandronate, ibandronate], the “effect on growth of Saccharomyces cerevisae” value ([4]; about 300 ppm, beverage pH 3.6 with malic acid) is reported as “impair the growth”.
For `O=C(O)CN(CCN(CC(=O)O)CC(=O)O)CC(=O)O` [EDTA, ethylenediamine tetraacetic acid], the “log K for sodium” value [9] is given as 1.7.

— patent US10631557B2, “Preservative system for acidic beverages based on sequestrants” (PepsiCo, Inc., priority 2008, dated 2020)
